Like-named read-outs stand apart in the source and are kept apart here.
Columns and labels:
KDM4C = biological target: T1, KDM4C (Homo sapiens, UniProt Q9H3R0); experiment: KDM4C AlphaScreen assay; type: biochemical; conditions: AlphaScreen; full length KDM4C 0.2 nM; biotinylated H3K9Me3 peptide 3 nM; 30 minutes at room temperature
T1 construct: Full length of KDM5B and KDM4C protein were purchased from Active Motif; purchased Active Motif 31858
T1 sequence (Q9H3R0 1-1056): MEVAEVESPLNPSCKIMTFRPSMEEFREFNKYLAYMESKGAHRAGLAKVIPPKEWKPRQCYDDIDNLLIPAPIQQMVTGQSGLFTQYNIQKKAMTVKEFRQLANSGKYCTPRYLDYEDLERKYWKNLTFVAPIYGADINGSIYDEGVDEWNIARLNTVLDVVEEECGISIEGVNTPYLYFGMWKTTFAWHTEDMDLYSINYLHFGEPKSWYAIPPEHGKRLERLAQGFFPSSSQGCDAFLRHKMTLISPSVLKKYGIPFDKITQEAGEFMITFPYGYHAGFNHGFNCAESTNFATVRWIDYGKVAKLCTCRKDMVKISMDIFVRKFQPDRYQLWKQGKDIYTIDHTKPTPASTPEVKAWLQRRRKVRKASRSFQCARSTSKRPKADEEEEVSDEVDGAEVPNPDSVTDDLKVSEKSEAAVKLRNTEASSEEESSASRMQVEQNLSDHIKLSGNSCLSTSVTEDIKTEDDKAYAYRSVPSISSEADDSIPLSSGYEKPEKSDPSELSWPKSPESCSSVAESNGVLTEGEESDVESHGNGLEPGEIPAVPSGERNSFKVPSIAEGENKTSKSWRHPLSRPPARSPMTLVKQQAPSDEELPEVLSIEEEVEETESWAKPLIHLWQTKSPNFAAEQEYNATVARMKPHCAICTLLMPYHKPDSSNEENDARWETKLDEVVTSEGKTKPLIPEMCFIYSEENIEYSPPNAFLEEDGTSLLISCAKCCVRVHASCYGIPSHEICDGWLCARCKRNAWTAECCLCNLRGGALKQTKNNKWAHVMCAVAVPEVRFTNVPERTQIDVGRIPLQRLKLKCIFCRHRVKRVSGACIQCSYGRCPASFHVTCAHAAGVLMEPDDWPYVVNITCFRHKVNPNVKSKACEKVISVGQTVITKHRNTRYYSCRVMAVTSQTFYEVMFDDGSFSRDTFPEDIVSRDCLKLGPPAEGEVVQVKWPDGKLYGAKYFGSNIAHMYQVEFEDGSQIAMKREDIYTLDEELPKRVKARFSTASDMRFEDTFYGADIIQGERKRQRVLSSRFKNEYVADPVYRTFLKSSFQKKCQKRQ
Method in brief: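 Full-length KDM4C (0.2 nM final) was preincubated 15 min at RT with compound in HEPES pH 7.4 with Tween-20, BSA and TCEP. The reaction ran 30 min at RT after adding biotinylated peptide (3 nM final) in buffer with Fe(II), α-ketoglutarate and ascorbate. EDTA-containing AlphaScreen beads stopped it; IC50 was curve-fitted.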

KDM5B = biological target: T2, KDM5B (Homo sapiens, UniProt Q9UGL1); experiment: biochemical
T2 construct: Full length of KDM5B and KDM4C protein were purchased from Active Motif; purchased Active Motif 31832
Method in brief: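 KDM5B (0.5 nM final) was preincubated with compound for 15 min at room temperature, then reacted with biotinylated peptide (3 nM final) for 25 min at room temperature.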

[1] = AlphaScreen, full length KDM5B 0.5 nM, biotinylated H3K4Me3 peptide 3 nM, 25 minutes at room temperature, read-out: KDM5B (IC50)

T2 sequence (Q9UGL1 whole entry): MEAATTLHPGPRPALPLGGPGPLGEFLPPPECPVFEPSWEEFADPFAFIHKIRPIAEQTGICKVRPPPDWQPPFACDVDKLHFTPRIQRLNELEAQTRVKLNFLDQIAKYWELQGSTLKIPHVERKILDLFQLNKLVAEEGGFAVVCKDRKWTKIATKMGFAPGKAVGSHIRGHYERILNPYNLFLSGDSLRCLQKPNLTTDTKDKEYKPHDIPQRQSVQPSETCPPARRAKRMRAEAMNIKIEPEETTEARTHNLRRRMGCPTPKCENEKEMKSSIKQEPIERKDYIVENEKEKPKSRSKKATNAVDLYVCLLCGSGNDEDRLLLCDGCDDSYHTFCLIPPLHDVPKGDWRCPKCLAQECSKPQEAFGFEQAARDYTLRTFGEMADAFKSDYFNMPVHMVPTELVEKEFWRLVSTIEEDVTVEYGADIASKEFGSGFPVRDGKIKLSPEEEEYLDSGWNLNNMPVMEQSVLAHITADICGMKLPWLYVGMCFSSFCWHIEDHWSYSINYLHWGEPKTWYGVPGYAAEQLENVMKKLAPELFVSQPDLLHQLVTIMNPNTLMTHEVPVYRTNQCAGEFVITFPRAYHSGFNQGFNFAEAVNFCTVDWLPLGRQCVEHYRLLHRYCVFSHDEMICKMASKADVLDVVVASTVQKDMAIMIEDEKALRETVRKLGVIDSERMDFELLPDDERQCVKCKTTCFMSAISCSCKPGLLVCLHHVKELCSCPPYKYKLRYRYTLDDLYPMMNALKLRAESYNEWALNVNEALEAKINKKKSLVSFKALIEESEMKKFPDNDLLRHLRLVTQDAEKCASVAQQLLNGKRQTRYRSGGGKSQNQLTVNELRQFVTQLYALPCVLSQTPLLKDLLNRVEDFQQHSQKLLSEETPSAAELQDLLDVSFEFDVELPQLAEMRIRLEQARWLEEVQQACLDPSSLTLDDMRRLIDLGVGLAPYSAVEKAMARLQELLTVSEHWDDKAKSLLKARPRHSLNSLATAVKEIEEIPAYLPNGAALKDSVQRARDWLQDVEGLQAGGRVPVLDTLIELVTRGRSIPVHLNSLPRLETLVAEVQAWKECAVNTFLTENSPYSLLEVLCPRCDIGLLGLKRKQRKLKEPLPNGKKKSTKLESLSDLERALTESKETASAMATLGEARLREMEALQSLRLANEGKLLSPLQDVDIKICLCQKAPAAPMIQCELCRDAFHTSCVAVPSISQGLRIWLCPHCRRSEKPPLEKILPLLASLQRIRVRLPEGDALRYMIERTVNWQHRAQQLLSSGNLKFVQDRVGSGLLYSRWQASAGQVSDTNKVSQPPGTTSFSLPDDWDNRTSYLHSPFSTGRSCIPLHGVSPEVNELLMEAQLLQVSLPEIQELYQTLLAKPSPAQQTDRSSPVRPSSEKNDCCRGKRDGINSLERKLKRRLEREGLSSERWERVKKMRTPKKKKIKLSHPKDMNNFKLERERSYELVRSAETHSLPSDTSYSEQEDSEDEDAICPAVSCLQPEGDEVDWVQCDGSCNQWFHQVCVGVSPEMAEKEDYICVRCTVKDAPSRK

| IC50 (KDM4C) [nM] | IC50 (KDM5B) [nM] | IC50 (KDM5B; [1]) [nM] | SMILES |
| --- | --- | --- | --- |
| 634 | 5 | – | CC(C)c1c(O)nc(-n2ccnc2)nc1-c1cnn(CC(=O)NCCN(C)C)c1 [Example 91, N-[2-(Dimethylamino)ethyl]-2-{4-[6-hydroxy-2-(1H-imidazol-1-yl)-5-(propan-2-yl)pyrimidin-4-yl]-1H-pyrazol-1-yl}acetamide] |
| 8260 | – | 563 | CC(C)c1c(O)nc(-n2ccnc2-c2ncccn2)nc1Cl [Example 88, 6-Chloro-5-(propan-2-yl)-2-[2-(pyrimidin-2-yl)-1H-imidazol-1-yl]pyrimidin-4-ol] |
| 881 | 12 | – | CC(C)c1c(O)nc(-n2ccnc2)nc1-c1cnn(CC(=O)N2CCC(C#N)C2)c1 (stereo not drawn) [Example 101, 1-(2-{4-[6-Hydroxy-2-(1H-imidazol-1-yl)-5-(propan-2-yl)pyrimidin-4-yl]-1H-pyrazol-1-yl}acetyl)-pyrrolidine-3-carbonitrile] |
| 7240 | 151 | – | CC(C)c1c(O)nc(-c2cncs2)nc1-c1cnn(C(C)C)c1 [Example 152, 5-(Propan-2-yl)-6-[1-(propan-2-yl)-1H-pyrazol-4-yl]-2-(1,3-thiazol-5-yl)pyrimidin-4-ol] |
| 1250 | 30 | – | CC(C)c1c(O)nc(-n2ccnc2)nc1-c1cnn(CC(=O)NC(CO)C(C)C)c1 (stereo not drawn) [Example 115, 2-{4-[6-Hydroxy-2-(1H-imidazol-1-yl)-5-(propan-2-yl)pyrimidin-4-yl]-1H-pyrazol-1-yl}-N-(1-hydroxy-3-methylbutan-2-yl)acetamide] |
| 1130 | – | 10 | CC(C)c1c(O)nc(-n2ccnc2)nc1-c1cn[nH]c1 [Example 46, 2-(1H-Imidazol-1-yl)-5-(propan-2-yl)-6-(1H-pyrazol-4-yl)pyrimidin-4-ol] |
| 1740 | 15 | – | CC(C)c1c(O)nc(-n2ccnc2)nc1-c1cnn(Cc2ccncc2)c1 [Example 53, 2-(1H-Imidazol-1-yl)-5-(propan-2-yl)-6-[1-(pyridin-4-ylmethyl)-1H-pyrazol-4-yl]-pyrimidin-4-ol] |
| 340 | – | 6 | CC(C)c1c(O)nc(-n2ccnc2)nc1-c1cnn(CC(=O)NCCN)c1 [Example 94, N-(2-Aminoethyl)-2-{4-[6-hydroxy-2-(1H-imidazol-1-yl)-5-(propan-2-yl)pyrimidin-4-yl]-1H-pyrazol-1-yl}-acetamide] |
| 1260 | 12 | – | CC(C)c1c(O)nc(-n2ccnc2)nc1-c1cnn(CC(=O)NCCN2CCOCC2)c1 [Example 100, 2-{4-[6-Hydroxy-2-(1H-imidazol-1-yl)-5-(propan-2-yl)pyrimidin-4-yl]-1H-pyrazol-1-yl}-N-[2-(morpholin-4-yl)ethyl]-acetamide] |
| 15800 | 1070 | – | Cc1nc(-c2cn[nH]c2)nc(O)c1C(C)C [Example 26, 5-Isopropyl-6-methyl-2-(1H-pyrazol-4-yl)pyrimidin-4-ol] |
| 1600 | 21 | – | CC(C)c1c(O)nc(-n2ccnc2)nc1-c1cnn(CC(=O)N2CCC(O)C2)c1 (stereo not drawn) [Example 112, 2-{4-[6-Hydroxy-2-(1H-imidazol-1-yl)-5-(propan-2-yl)pyrimidin-4-yl]-1H-pyrazol-1-yl}-1-(3-hydroxy-pyrrolidin-1-yl)ethan-1-one] |
| 1140 | 12 | – | CC(C)c1c(O)nc(-n2ccnc2)nc1OCCC1CCN(CCCC(F)(F)F)CC1 [Example 13, 2-(1H-imidazol-1-yl)-5-(propan-2-yl)-6-{2-[1-(4,4,4-trifluorobutyl)piperidin-4-yl]ethoxy}pyrimidin-4-ol] |
| 2660 | 22 | – | CC(C)c1c(O)nc(-n2ccnc2)nc1-c1cccnc1 [Example 70, 2-(1H-Imidazol-1-yl)-5-(propan-2-yl)-6-(pyridin-3-yl)pyrimidin-4-ol] |
| 1750 | – | 25 | CC(C)c1c(O)nc(-n2ccnc2)nc1-c1cnn(CC(=O)N2CCCC(O)C2)c1 (stereo not drawn) [Example 74, 2-{4-[6-Hydroxy-2-(1H-imidazol-1-yl)-5-(propan-2-yl)pyrimidin-4-yl]-1H-pyrazol-1-yl}-1-(3-hydroxy-piperidin-1-yl)ethan-1-one] |
| 1250 | 21 | – | CC(C)c1c(O)nc(-n2ccnc2)nc1-c1cnn(CC(=O)N2CCC(C#N)CC2)c1 [Example 110, 1-(2-{4-[6-Hydroxy-2-(1H-imidazol-1-yl)-5-(propan-2-yl)pyrimidin-4-yl]-1H-pyrazol-1-yl}acetyl)-piperidine-4-carbonitrile] |
